The source made the active and inactive calls.
Assays:
Mu-type opioid receptor = Mu-type opioid receptor (Homo sapiens, UniProt P35372); assay: (§1) Counterscreen for agonists of heterodimerization of the mu 1 (OPRM1) and delta 1 (OPRD1) opioid receptors: Luminescence-based cell-based high throughput dose response assay to identify agonists of OPRM1 homodimerization.; assay type: functional
[1] = target: T1, Short transient receptor potential channel 4 (Mus musculus, UniProt Q9QUQ5); assay: calcium entry via TRPC4 opening agents – cell-based, HEK293 TRPC4/mu-opioid, Fluo-4 calcium, dose response (AID 434937); assay type: functional
T1 sequence (Q9QUQ5 whole entry): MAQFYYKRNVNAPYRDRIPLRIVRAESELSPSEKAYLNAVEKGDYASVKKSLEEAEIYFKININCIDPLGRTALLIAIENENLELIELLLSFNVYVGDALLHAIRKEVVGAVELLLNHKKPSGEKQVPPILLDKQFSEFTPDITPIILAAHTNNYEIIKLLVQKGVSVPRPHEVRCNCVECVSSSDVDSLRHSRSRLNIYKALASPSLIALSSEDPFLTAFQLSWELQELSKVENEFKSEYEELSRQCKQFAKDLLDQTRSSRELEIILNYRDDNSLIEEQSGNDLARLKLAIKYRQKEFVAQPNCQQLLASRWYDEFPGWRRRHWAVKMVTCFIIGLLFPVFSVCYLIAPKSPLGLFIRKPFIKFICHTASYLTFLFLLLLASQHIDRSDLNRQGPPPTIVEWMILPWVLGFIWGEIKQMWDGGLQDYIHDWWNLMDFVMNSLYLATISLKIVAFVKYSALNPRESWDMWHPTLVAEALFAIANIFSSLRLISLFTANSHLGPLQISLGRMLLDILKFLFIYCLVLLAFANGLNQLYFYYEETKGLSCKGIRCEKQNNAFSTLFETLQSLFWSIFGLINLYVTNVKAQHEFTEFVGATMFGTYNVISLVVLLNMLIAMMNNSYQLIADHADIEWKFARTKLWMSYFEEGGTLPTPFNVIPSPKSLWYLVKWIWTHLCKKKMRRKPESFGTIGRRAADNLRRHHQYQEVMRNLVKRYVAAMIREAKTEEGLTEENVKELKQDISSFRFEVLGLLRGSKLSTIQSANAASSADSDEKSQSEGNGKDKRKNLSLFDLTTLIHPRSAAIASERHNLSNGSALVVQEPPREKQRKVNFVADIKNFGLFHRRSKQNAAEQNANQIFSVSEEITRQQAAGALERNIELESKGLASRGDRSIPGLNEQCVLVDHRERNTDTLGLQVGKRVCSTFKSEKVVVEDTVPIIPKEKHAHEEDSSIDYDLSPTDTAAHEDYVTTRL

[2] = target: Delta-type opioid receptor (Homo sapiens, UniProt P41143); assay: as §1, with “of OPRD1” for “of OPRM1”, “homodimerization. [Related pubchem assays (depositor defined):AID504326, AID504355, AID504692, AID504904, AID504905]” for “homodimerization.”; assay type: functional
[3] = target: 5-hydroxytryptamine receptor 5A (Homo sapiens, UniProt P47898); assay: Counterscreen for agonists of OPRM1-OPRD1 heterodimerization: luminescence-based cell-based high throughput dose response assay to identify agonists of 5-hydroxytryptamine (serotonin) 5A receptor (HTR5A). [Related pubchem assays (depositor defined):AID504326, AID504355, AID504692, AID504904, AID504905]; assay type: functional
[4] = Luminescence Cell-Based Dose Confirmation HTS to Identify Activators of 5'UTR Stem-Loop Driven Alpha-Synuclein mRNA Translation in H4 Neuroglioblastoma Cells. [Related pubchem assays: 1829 (Project Summary), 1814 (Primary HTS)]; assay type: functional
CHO-K1 = assay: (§2) Counterscreen for antagonists of the orexin 1 receptor (OX1R; HCRTR1): Homogeneous time resolved fluorescence (HTRF)-based cell-based dose response assay to identify antagonists of the parental CHO-K1 cell line. [Related pubchem assays (depositor defined):AID434989, AID435008, AID463079, AID485270, AID492963, AID492964, AID492965, AID493232, AID504699, AID504701]; assay type: functional; details: Cricetulus griseus
[5] = target: T2, Orexin/Hypocretin receptor type 1 (Homo sapiens, UniProt O43613); assay: Homogeneous Time Resolved Fluorescence (HTRF)-based cell-based high throughput dose response assay for antagonists of the orexin 1 receptor (OX1R; HCRTR1). [Related pubchem assays (depositor defined):AID434989, AID435008, AID463079, AID485270, AID492963, AID492964, AID492965, AID493232, AID504717, AID504718]; assay type: functional
T2 sequence (O43613 whole entry): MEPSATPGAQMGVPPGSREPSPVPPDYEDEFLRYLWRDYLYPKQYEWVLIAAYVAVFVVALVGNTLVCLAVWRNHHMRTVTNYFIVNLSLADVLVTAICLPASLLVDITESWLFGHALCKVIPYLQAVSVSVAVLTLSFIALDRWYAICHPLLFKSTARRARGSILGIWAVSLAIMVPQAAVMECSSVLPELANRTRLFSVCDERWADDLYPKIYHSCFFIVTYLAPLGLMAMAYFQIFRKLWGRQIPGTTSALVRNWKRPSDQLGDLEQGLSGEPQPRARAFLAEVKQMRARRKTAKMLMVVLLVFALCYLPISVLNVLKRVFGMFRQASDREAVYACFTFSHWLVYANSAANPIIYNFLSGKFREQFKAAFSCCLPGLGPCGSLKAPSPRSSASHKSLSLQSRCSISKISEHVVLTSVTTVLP

Orexin receptor type 2 [6] = target: T3, Orexin receptor type 2 (Homo sapiens, UniProt O43614); assay: Counterscreen assay for antagonists of the orexin 1 receptor (OX1R; HCRTR1): Fluorescence-based cell-based dose response assay for antagonists of the orexin 2 receptor (OX2R; HCRTR2), run by assay provider.; assay type: functional
T3 sequence (O43614 whole entry): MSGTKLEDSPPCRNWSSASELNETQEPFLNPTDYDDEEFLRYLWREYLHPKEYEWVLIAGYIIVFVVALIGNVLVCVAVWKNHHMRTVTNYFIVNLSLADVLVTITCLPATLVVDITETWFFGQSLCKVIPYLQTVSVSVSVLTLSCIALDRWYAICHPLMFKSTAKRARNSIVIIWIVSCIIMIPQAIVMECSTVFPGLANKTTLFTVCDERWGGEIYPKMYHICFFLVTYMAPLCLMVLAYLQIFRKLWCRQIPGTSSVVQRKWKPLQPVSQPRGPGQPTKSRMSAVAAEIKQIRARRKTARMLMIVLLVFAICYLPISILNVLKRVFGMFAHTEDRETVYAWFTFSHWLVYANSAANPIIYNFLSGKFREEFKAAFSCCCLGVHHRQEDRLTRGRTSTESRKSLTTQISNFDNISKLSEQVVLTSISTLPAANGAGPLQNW

H4 = assay: Luminescence Cell-Based Dose Response HTS to Identify Activators of 5'UTR Stem-Loop Driven Prion Protein mRNA Translation in H4 Neuroglioblastoma Cells. [Related pubchem assays: 1829 (Project Summary), 1814 (Primary HTS)]; assay type: functional; details: Homo sapiens
[7] = as §2, with “Fluorescence-based” for “Homogeneous time resolved fluorescence (HTRF)-based”, “cell-based high throughput” for “cell-based”, “CHO” for “CHO-K1”; assay type: functional
[8] = Luminescence Cell-Based Dose Response HTS to Identify Activators of Luciferase Translation or Activity in H4 […] Cells. [Related pubchem assays: 1829 (Project Summary), 1814 (Primary HTS)]; assay type: functional
[9] = target: T2, Orexin/Hypocretin receptor type 1; assay: Fluorescence-based cell-based high throughput dose response assay for antagonists of the orexin 1 receptor (OX1R; HCRTR1). [Related pubchem assays (depositor defined):AID434989, AID435008, AID463079, AID485270, AID492963, AID492964, AID492965, AID493232, AID504717, AID504718]; assay type: functional
Orexin receptor type 2 [10] = target: T3, Orexin receptor type 2; assay: Counterscreen assay for antagonists of the orexin 1 receptor (OX1R; HCRTR1): Homogeneous Time Resolved Fluorescence (HTRF)-based cell-based dose response assay for antagonists of the orexin 2 receptor (OX2R; HCRTR2), run by assay provider.; assay type: functional
[11] = target: Heat shock protein HSP 90-alpha (Homo sapiens, UniProt P07900); assay type: functional, organism-based
Cytochrome P450 2C9 = Cytochrome P450 2C9 (Homo sapiens, UniProt P11712)
Cytochrome P450 1A2 = target: T4, Cytochrome P450 1A2 (Homo sapiens, UniProt P05177);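 further: PubChem cytochrome P450 panel assay, CYP1A2 panel member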
T4 sequence (P05177 whole entry): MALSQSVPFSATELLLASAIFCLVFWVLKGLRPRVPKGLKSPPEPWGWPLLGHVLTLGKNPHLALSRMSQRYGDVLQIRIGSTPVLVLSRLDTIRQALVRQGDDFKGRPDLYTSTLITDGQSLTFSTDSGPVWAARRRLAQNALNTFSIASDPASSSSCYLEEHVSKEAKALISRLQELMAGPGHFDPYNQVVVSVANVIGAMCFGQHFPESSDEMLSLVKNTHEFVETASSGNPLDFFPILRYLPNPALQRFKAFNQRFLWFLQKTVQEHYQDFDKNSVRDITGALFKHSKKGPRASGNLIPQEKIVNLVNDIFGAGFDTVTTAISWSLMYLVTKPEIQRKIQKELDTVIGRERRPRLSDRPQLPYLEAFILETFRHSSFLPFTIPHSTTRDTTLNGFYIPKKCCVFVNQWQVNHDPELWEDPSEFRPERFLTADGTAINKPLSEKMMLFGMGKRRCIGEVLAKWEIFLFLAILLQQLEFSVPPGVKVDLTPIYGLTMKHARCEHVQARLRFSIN

Cytochrome P450 3A4 = Cytochrome P450 3A4 (Homo sapiens, UniProt P08684);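 further: CYP3A4 tested as one member of a cytochrome P450 panel screen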
Cytochrome P450 2C19 = Cytochrome P450 2C19 (Homo sapiens, UniProt P33261); assay: Cytochrome panel assay with activity outcomes. Panel member name: p450-cyp2c19 Compounds with AC50 equal or less than 10 uM are considered active; assay type: functional; details: read-out: AC50
[12] = Luminescence Cell-Based Dose Retest to Confirm Inhibitors of Cancer Stem Cells. [Related pubchem assays (depositor defined):AID2717, AID2721]; assay type: functional; details: Homo sapiens
Estrogen receptor = target: T5, Estrogen receptor (Homo sapiens, UniProt P03372);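 further: potency for inhibiting coactivator peptide recruitment to the receptor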
T5 sequence (P03372 whole entry): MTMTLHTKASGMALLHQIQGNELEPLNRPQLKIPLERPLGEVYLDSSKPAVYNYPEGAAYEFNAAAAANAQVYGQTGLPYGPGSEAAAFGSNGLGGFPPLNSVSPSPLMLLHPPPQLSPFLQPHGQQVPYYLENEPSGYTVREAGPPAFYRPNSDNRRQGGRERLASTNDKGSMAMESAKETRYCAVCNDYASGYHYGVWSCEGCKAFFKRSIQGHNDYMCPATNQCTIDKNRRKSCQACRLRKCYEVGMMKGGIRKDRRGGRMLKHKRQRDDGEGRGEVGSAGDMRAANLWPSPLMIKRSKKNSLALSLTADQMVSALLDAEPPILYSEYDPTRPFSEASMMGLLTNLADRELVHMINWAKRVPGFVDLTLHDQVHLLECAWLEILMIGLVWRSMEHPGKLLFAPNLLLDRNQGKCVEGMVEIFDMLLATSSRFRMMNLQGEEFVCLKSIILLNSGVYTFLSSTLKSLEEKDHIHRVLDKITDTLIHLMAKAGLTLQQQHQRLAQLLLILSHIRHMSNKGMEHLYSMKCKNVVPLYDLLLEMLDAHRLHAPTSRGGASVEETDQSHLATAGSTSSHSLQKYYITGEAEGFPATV

Mu-type opioid receptor, sequence (P35372 whole entry): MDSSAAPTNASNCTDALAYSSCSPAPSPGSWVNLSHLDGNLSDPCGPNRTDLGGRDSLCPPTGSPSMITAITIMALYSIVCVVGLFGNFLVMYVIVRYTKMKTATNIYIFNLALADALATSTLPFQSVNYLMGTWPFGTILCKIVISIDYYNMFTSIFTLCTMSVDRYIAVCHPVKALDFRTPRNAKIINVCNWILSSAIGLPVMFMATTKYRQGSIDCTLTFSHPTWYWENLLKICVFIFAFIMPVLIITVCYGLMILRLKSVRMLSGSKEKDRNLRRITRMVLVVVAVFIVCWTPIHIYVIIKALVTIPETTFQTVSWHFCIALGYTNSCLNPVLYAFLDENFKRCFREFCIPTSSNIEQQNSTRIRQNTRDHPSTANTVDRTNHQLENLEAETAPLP
5-hydroxytryptamine receptor 5A, sequence (P47898 whole entry): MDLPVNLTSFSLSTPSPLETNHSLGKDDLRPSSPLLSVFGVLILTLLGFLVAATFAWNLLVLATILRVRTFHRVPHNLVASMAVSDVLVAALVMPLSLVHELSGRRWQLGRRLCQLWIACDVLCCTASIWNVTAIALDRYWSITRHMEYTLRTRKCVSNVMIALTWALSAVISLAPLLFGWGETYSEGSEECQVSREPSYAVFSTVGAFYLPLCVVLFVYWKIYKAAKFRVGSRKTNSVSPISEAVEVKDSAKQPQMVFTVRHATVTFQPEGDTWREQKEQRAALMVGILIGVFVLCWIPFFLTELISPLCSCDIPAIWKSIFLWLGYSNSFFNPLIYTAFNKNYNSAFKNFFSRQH
Delta-type opioid receptor, sequence (P41143 whole entry): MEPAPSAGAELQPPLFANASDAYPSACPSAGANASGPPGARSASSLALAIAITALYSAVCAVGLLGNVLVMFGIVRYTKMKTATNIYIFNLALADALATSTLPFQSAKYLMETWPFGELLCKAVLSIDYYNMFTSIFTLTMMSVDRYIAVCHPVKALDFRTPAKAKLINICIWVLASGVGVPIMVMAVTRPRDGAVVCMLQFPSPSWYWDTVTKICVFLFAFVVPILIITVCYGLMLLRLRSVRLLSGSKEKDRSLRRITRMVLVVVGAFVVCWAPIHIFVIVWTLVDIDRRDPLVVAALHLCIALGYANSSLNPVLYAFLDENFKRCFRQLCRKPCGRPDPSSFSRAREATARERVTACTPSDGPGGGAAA
Cytochrome P450 2C19, sequence (P33261 whole entry): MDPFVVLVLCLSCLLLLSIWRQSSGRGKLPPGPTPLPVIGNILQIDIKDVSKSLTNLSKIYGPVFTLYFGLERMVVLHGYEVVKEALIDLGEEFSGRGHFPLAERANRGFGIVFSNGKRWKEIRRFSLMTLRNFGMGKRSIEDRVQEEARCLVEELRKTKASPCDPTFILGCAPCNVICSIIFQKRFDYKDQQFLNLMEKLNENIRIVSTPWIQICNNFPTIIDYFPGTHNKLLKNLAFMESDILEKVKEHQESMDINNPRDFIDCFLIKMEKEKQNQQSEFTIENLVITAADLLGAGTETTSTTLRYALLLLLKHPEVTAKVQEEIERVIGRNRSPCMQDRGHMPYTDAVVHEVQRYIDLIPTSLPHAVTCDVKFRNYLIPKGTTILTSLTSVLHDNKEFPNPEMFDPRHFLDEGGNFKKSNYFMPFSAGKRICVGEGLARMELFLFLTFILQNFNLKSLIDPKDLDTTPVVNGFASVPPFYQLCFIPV
Cytochrome P450 3A4, sequence (P08684 whole entry): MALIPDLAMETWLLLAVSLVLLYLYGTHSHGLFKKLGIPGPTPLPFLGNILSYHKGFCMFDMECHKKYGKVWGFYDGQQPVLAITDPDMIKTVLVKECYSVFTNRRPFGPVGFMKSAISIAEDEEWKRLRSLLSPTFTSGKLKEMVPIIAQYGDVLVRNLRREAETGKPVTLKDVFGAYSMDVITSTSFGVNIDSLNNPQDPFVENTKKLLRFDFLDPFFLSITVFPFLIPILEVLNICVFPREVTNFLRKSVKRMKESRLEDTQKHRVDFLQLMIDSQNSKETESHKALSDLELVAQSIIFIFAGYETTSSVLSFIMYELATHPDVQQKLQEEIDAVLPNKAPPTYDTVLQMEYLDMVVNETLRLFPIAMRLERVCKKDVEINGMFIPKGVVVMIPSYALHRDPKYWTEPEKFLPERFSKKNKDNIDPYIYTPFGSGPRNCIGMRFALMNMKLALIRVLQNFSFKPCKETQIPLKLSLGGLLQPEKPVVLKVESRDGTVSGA
Cytochrome P450 2C9, sequence (P11712 whole entry): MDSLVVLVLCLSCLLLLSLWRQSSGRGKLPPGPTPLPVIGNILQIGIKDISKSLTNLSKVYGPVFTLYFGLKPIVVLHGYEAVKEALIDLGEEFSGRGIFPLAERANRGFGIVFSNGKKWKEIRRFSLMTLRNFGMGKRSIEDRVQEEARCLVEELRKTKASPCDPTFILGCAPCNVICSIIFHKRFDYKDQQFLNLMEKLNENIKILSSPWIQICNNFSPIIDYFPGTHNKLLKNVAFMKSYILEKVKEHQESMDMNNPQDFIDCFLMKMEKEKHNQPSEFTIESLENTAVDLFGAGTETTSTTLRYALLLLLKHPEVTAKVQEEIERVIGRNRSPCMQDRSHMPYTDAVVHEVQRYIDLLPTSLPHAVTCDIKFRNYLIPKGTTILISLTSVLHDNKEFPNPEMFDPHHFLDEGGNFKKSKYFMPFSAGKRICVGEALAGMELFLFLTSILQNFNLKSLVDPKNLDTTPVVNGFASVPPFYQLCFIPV

Structure (SMILES) | EC50 (Mu-type opioid receptor) | EC50 [1] | EC50 [2] | EC50 [3] | EC50 [4] | IC50 (CHO-K1) | IC50 [5] | IC50 (Orexin receptor type 2 [6]) | EC50 (H4) | IC50 [7] | EC50 [8] | IC50 [9] | IC50 (Orexin receptor type 2 [10]) | further results
CCOC(=O)C1(CCCc2ccccc2)CCN(Cc2cnn(C)c2)CC1 | 43 µM (inactive) | 0.596 µM (active) | > 92.5 µM (inactive) | > 92.5 µM (inactive) |  |  |  |  |  |  |  |  |  | 
N#CC(=C1SC=CS1)c1nc(-c2ccccc2)cs1 |  |  |  |  | 0.204 µM (active) | > 66.2 µM (inactive) | 0.749 µM (active) | 6.66 µM (active) | > 120 µM (not active) | > 49.7 µM (inactive) | 53.4 µM (active) | 1.02 µM (active) | 4.31 µM (active) | 
COc1ccccc1OCCNC(=O)c1ccc(Br)cc1 |  |  |  |  |  |  |  |  |  |  |  |  |  | AC50 [11]: 10.8 µM (active)
CN1C2CCC1/C(=C\c1ccccc1)C(=O)/C2=C\c1ccccc1 |  |  |  |  | 6.92 µM (active) |  |  |  | > 120 µM (not active) |  | > 120 µM (not active) |  |  | AC50 (Cytochrome P450 2C9): inconclusive; AC50 (Cytochrome P450 1A2): 39.8 µM (inconclusive); AC50 (Cytochrome P450 3A4): inconclusive; AC50 (Cytochrome P450 2C19): 10 µM (inconclusive); AC50 [12]: 4.4 µM (active)
CCn1cc(CNCc2cn(-c3ccccc3C)nc2-c2ccc(OC)c(F)c2)cn1 | 18.9 µM (inactive) | 1.33 µM (active) | 34.7 µM (inactive) | > 92.5 µM (inactive) |  |  |  |  |  |  |  |  |  | 
CCn1c(SCC(=O)Nc2ccc3c(c2)c2ccccc2n3CC)nnc1-c1cnccn1 |  |  |  |  |  | > 66.3 µM (inactive) | 0.0548 µM (active) | 38.9 µM (inactive) |  | > 49.8 µM (inactive) |  | 2.18 µM (active) | 23.1 µM (inactive) | IC50 (Estrogen receptor): > 50 µM (not active)
